The IC50 is the concentration that inhibits the measured activity by half.

Chain of RORγ receptor (P51449 269-508): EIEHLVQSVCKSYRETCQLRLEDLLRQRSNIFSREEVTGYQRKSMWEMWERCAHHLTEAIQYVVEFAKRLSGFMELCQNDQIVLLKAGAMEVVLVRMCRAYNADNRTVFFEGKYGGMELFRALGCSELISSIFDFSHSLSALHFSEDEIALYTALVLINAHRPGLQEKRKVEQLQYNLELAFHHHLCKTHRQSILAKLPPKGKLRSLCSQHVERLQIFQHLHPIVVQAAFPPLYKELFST

One assay addresses RORγ receptor (Homo sapiens, UniProt P51449). The experiment in a line: RORγ Gal4 reporter assay (Gal4-luciferase, inverse agonist activity). Type of assay: cell-based.
Conditions: not given
The method, then: General RORγ Gal4 Reporter Assay
IC50 values were determined.
A general note: Reporter assays use an easily measured gene product as a stand-in for the process of interest.
In turn, `O=C(N[C@@H]1CC[C@@]2(S(=O)(=O)c3ccc(F)cc3)c3ccc(C(F)(C(F)(F)F)C(F)(F)F)cc3CC[C@@H]12)C1=CCS(=O)(=O)CC1` [Example 299, N-((3R,3aS,9bS)-9b-((4-fluorophenyl)sulfonyl)-7-(perfluoropropan-2-yl)-2,3,3a,4,5,9b-hexahydro-1H-cyclopenta[a]naphthalen-3-yl)-3,6-dihydro-2H-thiopyran-4-carboxamide 1,1-dioxide] gave an IC50 of 5 nM.
Same read-out and setting: the result for `[2H]C([2H])([2H])C(=O)N1CC(O)(CC(=O)N[C@@H]2CC[C@@]3(S(=O)(=O)c4ccc(F)cc4)c4ccc(C(F)(C(F)(F)F)C(F)(F)F)cc4CC[C@@H]23)C1` [Example 231, 2-(1-(acetyl-d3)-3-hydroxyazetidin-3-yl)-N-((3R,3aS,9bS)-9b-((4-fluorophenyl)sulfonyl)-7-(perfluoropropan-2-yl)-2,3,3a,4,5,9b-hexahydro-1H-cyclopenta[a]naphthalen-3-yl)acetamide] reads 65 nM.

Staying with this assay, now noted: Jurkat cells stably over-expressing hRORγ; Gal4-luciferase reporter; overnight incubation; read-out: RORγ Gal4, IC50.
As for `CC(NC(=O)[C@@H]1C[C@@H](F)C(=O)N1)[C@@H]1CC[C@@]2(S(=O)(=O)c3ccc(F)cc3)c3ccc(C(F)(C(F)(F)F)C(F)(F)F)cc3CC[C@@H]12` (stereo partly shown) [Example 268], the IC50 was 21 nM.
For `O=C(N[C@@H]1CC[C@@]2(S(=O)(=O)c3ccc(F)cc3)c3ccc(C(F)(C(F)(F)F)C(F)(F)F)cc3CC[C@@H]12)[C@H](O)C(F)(F)F` [Example 157], the IC50 amounted to 13 nM.
Same read-out and setting: to `O=C(O)[C@H]1CC[C@](F)(C(=O)N[C@@H]2CC[C@@]3(S(=O)(=O)c4ccc(F)cc4)c4ccc(C(F)(C(F)(F)F)C(F)(F)F)cc4CC[C@@H]23)CC1` [Example 192] belongs 24 nM; to `CS(=O)(=O)N1CCC(NC(=O)[C@@H]2CC[C@@]3(S(=O)(=O)c4ccc(F)cc4)c4ccc(C(F)(C(F)(F)F)C(F)(F)F)cc4CC[C@@H]23)CC1` [Example 77], 4 nM.
For the compound `O=C(O)C1CCCC(NC(=O)[C@@H]2CC[C@@]3(S(=O)(=O)c4ccc(F)cc4)c4ccc(C(F)(C(F)(F)F)C(F)(F)F)cc4CC[C@@H]23)C1` (stereo partly shown) [Example 100], the IC50 was 53 nM.
On the same count and under the same terms, to `O=C1OCCN1[C@@H]1CC[C@@]2(S(=O)(=O)c3ccc(F)cc3)c3ccc(C(F)(C(F)(F)F)C(F)(F)F)cc3CC[C@@H]12` [Example 240, 3-((3R,3aS,9bS)-9b-((4-fluorophenyl)sulfonyl)-7-(perfluoropropan-2-yl)-2,3,3a,4,5,9b-hexahydro-1H-cyclopenta[a]naphthalen-3-yl)oxazolidin-2-one] belongs 9 nM.
As to `CC(NC(=O)[C@@H]1C[C@@H](F)C(=O)N1)[C@@H]1CC[C@@]2(S(=O)(=O)c3ccc(F)cc3)c3ccc(C(F)(C(F)(F)F)C(F)(F)F)cc3CC[C@@H]12` (stereo partly shown) [Example 267], the IC50 was 15 nM.
In the case of `CC(NC(=O)c1ccncn1)[C@@H]1CC[C@@]2(S(=O)(=O)c3ccc(F)cc3)c3ccc(C(F)(C(F)(F)F)C(F)(F)F)cc3CC[C@@H]12` (stereo partly shown) [Example 261], the IC50 stood at 34 nM.
Same read-out and setting: to `CC(NC(=O)c1ccncc1)[C@@H]1CC[C@@]2(S(=O)(=O)c3ccc(F)cc3)c3ccc(C(F)(C(F)(F)F)C(F)(F)F)cc3CC[C@@H]12` (stereo partly shown) [Example 264] belongs 82 nM; to `CC(NS(=O)(=O)c1cnn(C)c1)[C@@H]1CC[C@@]2(S(=O)(=O)c3ccc(F)cc3)c3ccc(C(F)(C(F)(F)F)C(F)(F)F)cc3CC[C@@H]12` (stereo partly shown) [Example 273], 26 nM; to `O=C(O)C12C3C4C1C1C2C3C41C(=O)N[C@@H]1CC[C@@]2(S(=O)(=O)c3ccc(F)cc3)c3ccc(C(F)(C(F)(F)F)C(F)(F)F)cc3CC[C@@H]12` (stereo partly shown) [Example 193], 97 nM.
Same read-out and setting: to `Cc1nnsc1C(=O)N[C@@H]1CC[C@@]2(S(=O)(=O)c3ccc(F)cc3)c3ccc(C(F)(C(F)(F)F)C(F)(F)F)cc3CC[C@@H]12` [Example 147] belongs 9 nM.
Take `O=C(O)[C@H]1CC[C@H](C(=O)N[C@@H]2CC[C@@]3(S(=O)(=O)c4ccc(F)cc4)c4ccc(C(F)(C(F)(F)F)C(F)(F)F)cc4CC[C@@H]23)CC1` [Example 139]: the half-inhibitory concentration (IC50) is 24 nM.
Consider `CS(=O)(=O)N[C@H]1C[C@H](NC(=O)[C@@H]2CC[C@@]3(S(=O)(=O)c4ccc(F)cc4)c4ccc(C(F)(C(F)(F)F)C(F)(F)F)cc4CC[C@@H]23)C1` [Example 276], for which the IC50 amounted to 52 nM.
Consider `O=C([C@@H]1CC[C@@]2(S(=O)(=O)c3ccc(F)cc3)c3ccc(C(F)(C(F)(F)F)C(F)(F)F)cc3CC[C@@H]12)N1CC(F)(F)C(F)(F)C1` [Example 63], for which the IC50 was determined as 21 nM.
Same read-out and setting: to `O=C([C@@H]1CC[C@@]2(S(=O)(=O)c3ccc(F)cc3)c3ccc(C(F)(C(F)(F)F)C(F)(F)F)cc3CC[C@@H]12)N1CCC2(CC1)CNC2=O` [Example 85] belongs 14 nM.
As to `O=C(N[C@@H]1CC[C@@]2(S(=O)(=O)c3ccc(F)cc3)c3ccc(C(F)(C(F)(F)F)C(F)(F)F)cc3CC[C@@H]12)c1cccnc1O` [Example 161], the IC50 amounted to 16 nM.
Still for that read-out and setting: to `CC1(O)CN(C(=O)N[C@@H]2CC[C@@]3(S(=O)(=O)c4ccc(F)cc4)c4ccc(C(F)(C(F)(F)F)C(F)(F)F)cc4CC[C@@H]23)C1` [Example 204] belongs 9 nM.
Consider `NS(=O)(=O)N[C@H]1C[C@@H](NC(=O)[C@@H]2CC[C@@]3(S(=O)(=O)c4ccc(F)cc4)c4ccc(C(F)(C(F)(F)F)C(F)(F)F)cc4CC[C@@H]23)C1` [Example 280, (3R,3aS,9bS)-9b-((4-fluorophenyl)sulfonyl)-7-(perfluoropropan-2-yl)-N-((1s,3S)-3-(sulfamoylamino)cyclobutyl)-2,3,3a,4,5,9b-hexahydro-1H-cyclopenta[a]naphthalene-3-carboxamide], for which the IC50 worked out at 22 nM.
Take `O=C(Nc1ccnc2[nH]ncc12)[C@@H]1CC[C@@]2(S(=O)(=O)c3ccc(F)cc3)c3ccc(C(F)(C(F)(F)F)C(F)(F)F)cc3CC[C@@H]12` [Example 27]: the IC50 amounted to 48 nM.
For the compound `O=C(N[C@@H]1CC[C@@]2(S(=O)(=O)c3ccc(F)cc3)c3ccc(C(F)(C(F)(F)F)C(F)(F)F)cc3CC[C@@H]12)C1CCS(=O)(=O)CC1` [Example 149, N-((3R,3aS,9bS)-9b-((4-fluorophenyl)sulfonyl)-7-(perfluoropropan-2-yl)-2,3,3a,4,5,9b-hexahydro-1H-cyclopenta[a]naphthalen-3-yl)tetrahydro-2H-thiopyran-4-carboxamide 1,1-dioxide], the IC50 is 9 nM.
For `CC(NC(=O)c1ccncc1)[C@@H]1CC[C@@]2(S(=O)(=O)c3ccc(F)cc3)c3ccc(C(F)(C(F)(F)F)C(F)(F)F)cc3CC[C@@H]12` (stereo partly shown) [Example 263], the IC50 is 22 nM.
On to `CC(NS(=O)(=O)c1nc[nH]n1)[C@@H]1CC[C@@]2(S(=O)(=O)c3ccc(F)cc3)c3ccc(C(F)(C(F)(F)F)C(F)(F)F)cc3CC[C@@H]12` (stereo partly shown) [Example 274], for which the IC50 was determined as 62 nM.
On the same count and under the same terms, the result for `NC(=O)[C@H]1CC(F)(F)CN1C(=O)[C@@H]1CC[C@@]2(S(=O)(=O)c3ccc(F)cc3)c3ccc(C(F)(C(F)(F)F)C(F)(F)F)cc3CC[C@@H]12` [Example 66] reads 15 nM; that for `O=C(O)C1CCCC(NC(=O)[C@@H]2CC[C@@]3(S(=O)(=O)c4ccc(F)cc4)c4ccc(C(F)(C(F)(F)F)C(F)(F)F)cc4CC[C@@H]23)C1` (stereo partly shown) [Example 99], 14 nM.
In the case of `CC(C)(O)CN1C(=O)CCN1C(=O)N[C@@H]1CC[C@@]2(S(=O)(=O)c3ccc(F)cc3)c3ccc(C(F)(C(F)(F)F)C(F)(F)F)cc3CC[C@@H]12` [Example 229, N-((3R,3aS,9bS)-9b-((4-fluorophenyl)sulfonyl)-7-(perfluoropropan-2-yl)-2,3,3a,4,59b-hexahydro-1H-cyclopenta[a]naphthalen-3-yl)-2-(2-hydroxy-2-methylpropyl)-3-oxopyrazolidin-1-carboxamide], the IC50 worked out at 5 nM.
Same read-out and setting: to `O=C(O)c1ccc(C(=O)N[C@@H]2CC[C@@]3(S(=O)(=O)c4ccc(F)cc4)c4ccc(C(F)(C(F)(F)F)C(F)(F)F)cc4CC[C@@H]23)cc1` [Example 162] belongs 22 nM.
As to `CS(=O)(=O)N1CCC(O)(C(=O)N[C@@H]2CC[C@@]3(S(=O)(=O)c4ccc(F)cc4)c4ccc(C(F)(C(F)(F)F)C(F)(F)F)cc4CC[C@@H]23)CC1` [Example 124], the IC50 came to 7 nM.
Take `CS(=O)(=O)N1CCC(CNC(=O)[C@@H]2CC[C@@]3(S(=O)(=O)c4ccc(F)cc4)c4ccc(C(F)(C(F)(F)F)C(F)(F)F)cc4CC[C@@H]23)C1` (stereo partly shown) [Example 278]: the IC50 was found to be 7 nM.
On to `O=C([C@@H]1CC[C@@]2(S(=O)(=O)c3ccc(F)cc3)c3ccc(C(F)(C(F)(F)F)C(F)(F)F)cc3CC[C@@H]12)N1CCC(F)(F)C1` [Example 65], for which the IC50 was 13 nM.
On the same count and under the same terms, to `C[C@H]1C[C@H](C(=O)O)CC[C@H]1C(=O)N[C@@H]1CC[C@@]2(S(=O)(=O)c3ccc(F)cc3)c3ccc(C(F)(C(F)(F)F)C(F)(F)F)cc3CC[C@@H]12` [Example 194] belongs 32 nM; to `CC(C)(C(=O)N[C@@H]1CC[C@@]2(S(=O)(=O)c3ccc(F)cc3)c3ccc(C(F)(C(F)(F)F)C(F)(F)F)cc3CC[C@@H]12)N1CCNCC1` [Example 200], 63 nM.
`CC(C)(N)C(=O)N[C@@H]1CC[C@@]2(S(=O)(=O)c3ccc(F)cc3)c3ccc(C(F)(C(F)(F)F)C(F)(F)F)cc3CC[C@@H]12` [Example 197]: the IC50 came to 30 nM.
The same measure, in the same setting: to `O=C1CC2(CCN(C(=O)[C@@H]3CC[C@@]4(S(=O)(=O)c5ccc(F)cc5)c5ccc(C(F)(C(F)(F)F)C(F)(F)F)cc5CC[C@@H]34)CC2)N1` [Example 84] belongs 5 nM; to `Cn1cc(C(=O)N[C@@H]2CC[C@@]3(S(=O)(=O)c4ccc(F)cc4)c4ccc(C(F)(C(F)(F)F)C(F)(F)F)cc4CC[C@@H]23)ccc1=O` [Example 189], 9 nM.
As for `CS(=O)(=O)N1CC(O)(CNC(=O)[C@@H]2CC[C@@]3(S(=O)(=O)c4ccc(F)cc4)c4ccc(C(F)(C(F)(F)F)C(F)(F)F)cc4CC[C@@H]23)C1` [Example 279], the IC50 is 19 nM.
Still for that read-out and setting: to `CN(C)[C@@H]1CC[C@@]2(S(=O)(=O)c3ccc(F)cc3)c3ccc(C(F)(C(F)(F)F)C(F)(F)F)cc3CC[C@@H]12` [Example 212] belongs 160 nM; to `O=C(O)C1CCN(C(=O)[C@@H]2CC[C@@]3(S(=O)(=O)c4ccc(F)cc4)c4ccc(C(F)(C(F)(F)F)C(F)(F)F)cc4CC[C@@H]23)C1` (stereo partly shown) [Example 92], 41 nM.
